These are literature values, as cited in patent US20170239214A1, “COMPOSITION FOR PREVENTING OR TREATING OBESITY CONTAINING ALPHA-LIPOIC ACID AND N-ACETYLCYSTEINE AS ACTIVE INGREDIENTS” (The Asan Foundation, priority 2015, published 2017).

For series [1] the following is noted: rats.
The conditions of series [2]: mice.

In the case of `CC(=O)N[C@@H](CS)C(=O)O` [N-acetylcysteine], in series [1], the improving insulin resistance result was “improving insulin resistance” and the “inhibiting a weight gain” value was “significant effects of inhibiting a weight gain”.

On to `O=C(O)CCCCC1CCSS1` (stereo not drawn) [α-lipoic acid], for which, in series [2], the appetite suppressant effect result is recorded as “pronounced appetite suppressant effect”.
